The values that follow come from patent publication EP4624465A1, “COMPOUND SERVING AS DDR1 KINASE INHIBITOR, AND MEDICINE” (Nippon Shinyaku Co., Ltd., priority 2022, dated 2024).

Structures can show the parent of a compound that is named as a salt.

The IC50 is the concentration at which inhibition is half-maximal.

The target of assay [1] is T1, DDR1 kinase (Homo sapiens, UniProt Q08345). Description: Evaluation of DDR1 kinase inhibition (LANCE Ultra TR-FRET kinase assay). Type of assay: biochemical. More on the design: purchased Carna Biosciences 08-113. To be noted: DDR1 protein 0.5 nM, LANCE Ultra ULight-poly GAT substrate, 2 hours at room temperature, duplicate; read-out: DDR-1 IC50.
Target sequence in this assay (Q08345 19-876 isoform Q08345-2 limits assumed): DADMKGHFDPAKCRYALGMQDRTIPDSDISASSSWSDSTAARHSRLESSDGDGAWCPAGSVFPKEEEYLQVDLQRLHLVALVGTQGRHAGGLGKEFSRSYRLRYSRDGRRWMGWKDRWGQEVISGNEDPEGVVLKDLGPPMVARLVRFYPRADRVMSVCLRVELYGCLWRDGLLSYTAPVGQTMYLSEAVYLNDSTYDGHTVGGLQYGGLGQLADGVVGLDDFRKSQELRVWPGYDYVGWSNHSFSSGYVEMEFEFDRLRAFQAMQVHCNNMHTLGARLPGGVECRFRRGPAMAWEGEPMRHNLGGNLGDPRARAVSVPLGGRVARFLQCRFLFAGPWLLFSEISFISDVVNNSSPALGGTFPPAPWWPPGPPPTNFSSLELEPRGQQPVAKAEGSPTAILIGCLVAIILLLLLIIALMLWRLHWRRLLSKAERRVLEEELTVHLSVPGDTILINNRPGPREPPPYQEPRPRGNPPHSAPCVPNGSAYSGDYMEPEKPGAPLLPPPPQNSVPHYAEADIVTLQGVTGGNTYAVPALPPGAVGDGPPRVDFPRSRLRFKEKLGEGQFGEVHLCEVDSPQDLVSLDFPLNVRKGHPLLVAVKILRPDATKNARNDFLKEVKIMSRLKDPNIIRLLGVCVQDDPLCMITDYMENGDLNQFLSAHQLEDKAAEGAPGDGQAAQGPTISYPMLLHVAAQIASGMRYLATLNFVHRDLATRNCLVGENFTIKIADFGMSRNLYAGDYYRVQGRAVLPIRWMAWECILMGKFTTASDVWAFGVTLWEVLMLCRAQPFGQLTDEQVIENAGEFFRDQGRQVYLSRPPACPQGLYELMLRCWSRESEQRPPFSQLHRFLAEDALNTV
Assay [2] concerns the target T1, DDR1 kinase. Put plainly: Evaluation of DDR1 kinase inhibition in DDR1-expressing U2OS cells (type I collagen stimulation, PathHunter detection). Format: cell-based. More on the design: host or cells: U2OS. To be noted: type I collagen 50 µg/mL stimulation, duplicate, read-out: DDR-1 IC50. The method, then: The solution was further diluted in an E-MEM medium (Fujifilm Wako Pure Chemicals, 051-07615) containing 10% fetal bovine serum (FBS, Gibco, 10270106) to 60000, 6000, 600, 60, 6, and 0.6 nM to prepare test substance solutions. 2. […] On the following day, after the plate was left at room temperature for 1 hour, a detection solution was added to the wells at […] according to the handling instructions for the PathHunter® Detection Kit (DiscoverX, 93-0001), and then incubated at room temperature for 2 hours. After the incubation, a luminescence intensity was measured by Envision (Perkin-Elmer). Tests were performed in duplicate. 3.
Target sequence in this assay (Q08345 19-913): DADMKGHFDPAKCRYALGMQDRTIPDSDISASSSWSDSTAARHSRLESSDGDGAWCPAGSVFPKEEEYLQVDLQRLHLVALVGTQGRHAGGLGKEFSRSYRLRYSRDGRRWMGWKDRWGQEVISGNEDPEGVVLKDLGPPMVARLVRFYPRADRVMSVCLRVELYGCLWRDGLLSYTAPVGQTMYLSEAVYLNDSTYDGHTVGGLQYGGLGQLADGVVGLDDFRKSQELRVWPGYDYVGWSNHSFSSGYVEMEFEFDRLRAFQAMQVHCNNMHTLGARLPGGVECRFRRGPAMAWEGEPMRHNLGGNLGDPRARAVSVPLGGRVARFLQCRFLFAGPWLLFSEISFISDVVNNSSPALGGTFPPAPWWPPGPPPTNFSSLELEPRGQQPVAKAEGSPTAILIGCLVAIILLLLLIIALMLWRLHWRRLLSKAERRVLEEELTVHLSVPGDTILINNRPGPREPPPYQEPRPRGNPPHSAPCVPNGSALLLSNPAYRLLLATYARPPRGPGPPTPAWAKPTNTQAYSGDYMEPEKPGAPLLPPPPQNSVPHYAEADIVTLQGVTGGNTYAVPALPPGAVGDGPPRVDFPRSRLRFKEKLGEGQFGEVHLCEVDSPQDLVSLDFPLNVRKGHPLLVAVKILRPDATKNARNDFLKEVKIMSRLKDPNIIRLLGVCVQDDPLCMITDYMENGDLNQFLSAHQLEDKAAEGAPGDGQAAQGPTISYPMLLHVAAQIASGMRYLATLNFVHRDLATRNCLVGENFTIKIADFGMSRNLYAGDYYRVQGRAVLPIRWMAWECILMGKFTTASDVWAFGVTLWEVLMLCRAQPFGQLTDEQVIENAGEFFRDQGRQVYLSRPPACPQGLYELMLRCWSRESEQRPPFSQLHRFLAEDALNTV

Regarding `Cc1nc(N)sc1C(=O)N1CC(c2nn(CC(=O)N3CCC[C@H]3C(F)(F)F)c3ccccc23)C1` [Compound E-197, 2-(3-[1-(2-amino-4-methyl-1,3-thiazole-5-carbonyl)azetidin-3-yl]-1H-indazol-1-yl}-1-[(2S)-2-(trifluoromethyl)pyrrolidin-1-yl]ethan-1-one], the IC50 came to 0.0023 µM on DDR1 kinase [1] and 0.15 µM on DDR1 kinase [2].
Taken in the same sequence, the figures for `O=C(c1ccnc(NC2CC2)c1)N1CC(c2nn(CC(=O)N3CCC[C@H]3C(F)(F)F)c3cccnc23)C1` [Compound E-121, 2-(3-{1-[2-(cyclopropylamino)pyridine-4-carbonyl]azetidin-3-yl}-1H-pyrazolo[4,3-b]pyridin-1-yl)-1-[(2S)-2-(trifluoromethyl)pyrrolidin-1-yl]ethan-1-one] were 0.024 µM and 0.17 µM.
As for `Nc1ncc(C(=O)N2CC(c3nn(CC(=O)N4CCC[C@H]4C(F)(F)F)c4cc(F)cc(F)c34)C2)o1` [Compound E-105, 2-{3-[1-(2-amino-1,3-oxazole-5-carbonyl)azetidin-3-yl]-4,6-difluoro-1H-indazol-1-yl}-1-[(28)-2-(trifluoromethyl)pyrrolidin-1-yl]ethan-1-one], the half-maximal inhibitory concentration (IC50) is 0.079 µM on DDR1 kinase [1] and 0.37 µM on DDR1 kinase [2].
The like results for `CCNc1cc(C(=O)N2CC(c3nn(CC(=O)NCC(F)(F)F)c4cccc(Cl)c34)C2)ccn1` [Compound E-64, 2-(4-chloro-3-(1-[2-(ethylamino)pyridine-4-carbonyl]azetidin-3-yl}-1H-indazol-1-yl)-N-(2,2,2-trifluoroethyl)acetamide hydrochloride] were, in that order, 0.062 µM and 0.18 µM.
With `CNc1cc(C(=O)N2CC(c3nn(CC(=O)NCC(F)(F)F)c4cccc(Cl)c34)C2)ccn1` [Compound E-63, 2-(4-chloro-3-{1-[2-(methylamino)pyridine-4-carbonyl]azetidin-3-yl]-1H-indazol-1-yl)-N-(2,2,2-trifluoroethyl)acetamide], the concentration for half-maximal inhibition (IC50) came out at 0.0043 µM at DDR1 kinase [1] and 0.14 µM at DDR1 kinase [2].
As to `CC1(C)COCCN1C(=O)Cn1nc(C2CN(C(=O)c3ccnc(N)c3)C2)c2ccccc21` [Compound E-188, 2-{3-[1-(2-aminopyridine-4-carbonyl)azetidin-3-yl]-1H-indazol-1-yl}-1-(3,3-dimethylmorpholin-4-yl)ethan-1-one], the half-inhibitory concentration (IC50) on DDR1 kinase [1] came out at 0.0079 µM; at DDR1 kinase [2], 0.089 µM.
For the compound `Nc1cc(C(=O)N2CC(c3nn(CC(=O)N4CCC[C@H]4C(F)(F)F)c4cc(F)ccc34)C2)c(F)cn1` [Compound E-275, 2-{3-[1-(2-amino-5-fluoropyridine-4-carbonyl)azetidin-3-yl]-6-fluoro-1H-indazol-1-yl}-1-[(2S)-2-(trifluoromethyl)pyrrolidin-1-yl]ethan-1-one], the IC50 at DDR1 kinase [1] came out at 0.0048 µM; at DDR1 kinase [2] it was 0.021 µM.
Taken in the same sequence, the figures for `Cc1nc(N)sc1C(=O)N1CC(c2nn(CC(=O)N3CCC[C@H]3C(F)(F)F)c3cc(F)cc(F)c23)C1` [Compound E-106] were 0.0052 µM and 0.18 µM.
On to `Cc1c(C(=O)N2CC(c3nn(CC(=O)N4CCO[C@@H](C(F)(F)F)C4)c4ccccc34)C2)ccnc1N` [Compound E-8, 2-{3-[1-(2-amino-3-methylpyridine-4-carbonyl)azetidin-3-yl]-1H-indazol-1-yl}-1-[(2R)-2-(trifluoromethyl)morpholin-4-yl]ethan-1-one], for which the IC50 is 0.0052 µM at DDR1 kinase [1] and 0.23 µM at DDR1 kinase [2].
For the compound `O=C(c1cnn2ccsc12)N1CC(c2nn(CC(=O)N3CCC[C@H]3C(F)(F)F)c3cc(F)cc(F)c23)C1` [Compound E-102], the half-maximal inhibitory concentration (IC50) at DDR1 kinase [1] amounted to 0.013 µM; on DDR1 kinase [2] it was 3.3 µM.
In the case of `Nc1cc(C(=O)N2CC(c3nn(CC(=O)N4CCC(F)(F)CC4)c4ccccc34)C2)c(F)cn1` [Compound E-257, 2-{3-[1-(2-amino-5-fluoropyridine-4-carbonyl)azetidin-3-yl]-1H-indazol-1-yl}-1-(4,4-difluoropiperidin-1-yl)ethan-1-one], the values for the half-inhibitory concentration (IC50) on DDR1 kinase [1] and on DDR1 kinase [2] were 0.013 µM and 0.042 µM, respectively.
Taken in the same sequence, the figures for `CN(C(=O)Cn1nc(C2CN(C(=O)c3cc(N)ncc3F)C2)c2ccccc21)C1COC1` [Compound E-254, 2-{3-{1-(2-amino-5-fluoropyridine-4-carbonyl)azetidin-3-yl]-1H-indazol-1-yl}-N-methyl-N-(oxetan-3-yl)acetamide] were 0.021 µM and 0.39 µM.
Regarding `Nc1cc(C(=O)N2CC(c3nn(Cc4nc(-c5ccc(F)cc5)no4)c4cccc(F)c34)C2)ccn1` [Compound E-104, 4-[3-(4-fluoro-1-{[3-(4-fluorophenyl)-1,2,4-oxadiazol-5-yl]methyl}-1H-indazol-3-yl)azetidine,1-carbonyl)pyridin-2-amine], the IC50 at DDR1 kinase [1] was determined as 0.0052 µM; at DDR1 kinase [2] it was 0.11 µM.
Turning to `CN(CC(F)F)C(=O)Cn1nc(C2CN(C(=O)c3cc(N)ncc3F)C2)c2ccccc21` [Compound E-269, 2-{3-[1-(2-amino-5-fluoropyridine-4-carbonyl)azetidin-3-yl]-1H-indazol-1-yl}-N-(2,2-difluoroethyl)-N-methylacetamide], the half-maximal inhibitory concentration (IC50) was 0.0048 µM at DDR1 kinase [1] and 0.038 µM on DDR1 kinase [2].
With `Nc1cc(C(=O)N2CCC(c3nn(CC(=O)N4CCO[C@@H](C(F)(F)F)C4)c4cccc(F)c34)CC2)ccn1` [Compound E-91, 2-{3-[1-(2-aminopyridine-4-carbonyl)piperidin-4-yl]-4-fluoro-1H-indazol-1-yl]-1-[(2R)-2-(trifluoromethyl)morpholin-4-yl]ethan-1-one], the IC50 came out at 0.011 µM on DDR1 kinase [1] and 0.61 µM on DDR1 kinase [2].
In the case of `Cc1ccc2c(n1)c(C1CN(C(=O)c3cc(N)ncc3F)C1)nn2CC(=O)N1CCOCC1(C)C` [Compound E-186, 2-{3-[1-(2-amino-5-fluoropyridine-4-carbonyl)azetidin-3-yl]-5-methyl-1H-pyrazolo[4,3-b]pyridin-1-yl}-1-(3,3-dimethylmorpholin-4-yl)ethan-1-one p-toluenesulfonate], the values for the IC50 on DDR1 kinase [1] and on DDR1 kinase [2] were 0.023 µM and 0.69 µM, respectively.
The like results for `Cc1cnc(N)cc1C(=O)N1CC(c2nn(CC(=O)N3CCC[C@H]3C(F)(F)F)c3cc(F)cc(F)c23)C1` [Compound E-78, 2-{3-[1-(2-amino-5-methylpyridine-4-carbonyl)azetidin-3-yl]-4,6-difluoro-1H-indazol-1-yl}-1-[(2S)-2-(trifluoromethyl)pyrrolidin-1-yl]ethan-1-one hydrochloride] were, in that order, 0.013 µM and 0.38 µM.
On to `CN(CC1CC1)C(=O)Cn1nc(C2CN(C(=O)c3ccnc(N)c3)C2)c2ccccc21` [Compound E-229, 2-{3-[1-(2-aminopyridine-4-carbonyl)azetidin-3-yl]-1H-indazol-1-yl}-N-(cyclopropylmethyl)-N-methylacetamide], for which the values for the concentration for half-maximal inhibition (IC50) at DDR1 kinase [1] and on DDR1 kinase [2] were 0.006 µM and 0.081 µM, respectively.
As to `Nc1cc(C(=O)N2CC(c3nn(CC(=O)N4CCCC4)c4cc(F)cc(F)c34)C2)ccn1` [Compound E-76, 2-{3-[1-(2-aminopyridine-4-carbonyl)azetidin-3-yl]-4,6-difluoro-1H-indazol-1-yl}-1-(pyrrolidin-1-yl)ethan-1-one], the half-inhibitory concentration (IC50) was 0.1 µM at DDR1 kinase [1] and 1.3 µM at DDR1 kinase [2].
Regarding `Nc1cc(C(=O)N2CC(c3nn(Cc4cn(CC5CC5)nn4)c4cccc(F)c34)C2)ccn1` [Compound E-37, 4-[3-(1-{[1-(cyclopropylmethyl)-1H-1,2,3-triazol-4-yl]methyl}-4-fluoro-1H-indazol-3-yl)azetidine-1-carbonyl]pyridin-2-amine hydrochloride], the half-inhibitory concentration (IC50) came to 0.05 µM on DDR1 kinase [1] and 2.6 µM at DDR1 kinase [2].
For the compound `CN(C(=O)Cn1nc(C2CN(C(=O)c3cc(N)ncc3F)C2)c2ccccc21)C1CC(F)(F)C1` [Compound E-250, 2-{3-[1-(2-amino-5-fluoropyridine-4-carbonyl)azetidin-3-yl]-1H-indazol-1-yl}-N-(3,3-difluorocyclobutyl)-N-methylacetamide], the IC50 at DDR1 kinase [1] came to 0.002 µM; on DDR1 kinase [2], 0.017 µM.
`O=C(c1cnc2ccccn12)N1CC(c2nn(CC(=O)N3CCC[C@H]3C(F)(F)F)c3cc(F)cc(F)c23)C1` [Compound E-101]: the IC50 at DDR1 kinase [1] turned out to be 0.021 µM; at DDR1 kinase [2] it was 0.27 µM.
For the compound `Nc1cc(C(=O)N2CC(c3nn(CC(=O)N4CCC[C@H]4C(F)(F)F)c4cc(F)cc(F)c34)C2)cnn1` [Compound E-16, 2-{3-[1-(6-aminopyridazine-4-carbonyl)azetidin-3-yl]-4,6-difluoro-1H-indazol-1-yl)-1-[(2S)-2-(trifluoromethyl)pyrrolidin-1-yl]ethan-1-one], the half-inhibitory concentration (IC50) at DDR1 kinase [1] is 0.015 µM; at DDR1 kinase [2] it was 0.72 µM.
On to `Nc1cc(C(=O)N2CC(c3nn(CC(=O)N4CCC[C@H]4C(F)(F)F)c4cncc(F)c34)C2)ccn1` [Compound E-54, 2-{3-[1-(2-aminopyridine-4-carbonyl)azetidin-3-yl]-4-fluoro-1H-pyrazolo[3,4-c]pyridin-1-yl}-1-[(2S)-2-(trifluoromethyl)pyrrolidin-1-yl]ethan-1-one hydrochloride], for which the figures for the IC50 at DDR1 kinase [1] and at DDR1 kinase [2] were 0.0062 µM and 0.18 µM, respectively.
Regarding `Nc1cc(C(=O)N2CC(c3nn(CC(=O)N4CC(F)(F)C[C@H]4CF)c4ccccc34)C2)c(F)cn1` [Compound E-237, 2-{3-[1-(2-amino-5-fluoropyridine-4-carbonyl)azetidin-3-yl]-1H-indazol-1-yl]-1-[(2S)-4,4-difluoro-2-(fluoromethyl)pyrrolidin-1-yl]ethan-1-one], the IC50 was found to be 0.0038 µM at DDR1 kinase [1] and 0.034 µM at DDR1 kinase [2].
